Data: ChEMBL document CHEMBL1275391, “Design, synthesis, and preclinical evaluation of new 5,6- (or 6,7-) disubstituted-2-(fluorophenyl)quinolin-4-one derivatives as potent antitumor agents” (J Med Chem, 2010)

Columns and labels:
[1] = target: UGT1A1 (Homo sapiens, UniProt P22309); assay: Inhibition of human UGT1A1 at 10 uM
[2] = Growth inhibition of human […] cells; type: functional
[3] = system: RXF 393; assay: Growth inhibition of human RXF393 cells; type: functional
[4] = system: ACHN; assay: Growth inhibition of human ACHN cells; type: functional
[5] = system: CAKI-1; assay: Growth inhibition of human Caki1 cells; type: functional
[6] = system: MDA-MB-231; assay: Growth inhibition of human MDA-MB-231 cells; type: functional
[7] = system: MDA-MB-435; assay: Growth inhibition of human MDA-MB-435 cells; type: functional
[8] = system: NCI-H460; assay: Growth inhibition of human NCI-H460 cells; type: functional
[9] = target: Phosphodiesterase 4 (Homo sapiens) (UniProt P27815+Q08499+Q07343+Q08493); assay: Inhibition of human PDE4 at 10 uM; type: protein assay
[10] = system: OVCAR-3; assay: Growth inhibition of human OVCAR-3 cells; type: functional
[11] = system: NCI-H522; assay: Growth inhibition of human NCI-H522 cells; type: functional
[12] = system: A549; assay: Growth inhibition of human A549 cells; type: functional
[13] = system: UO-31; assay: Growth inhibition of human UO31 cells; type: functional
[14] = system: OVCAR-8; assay: Growth inhibition of human OVCAR8 cells; type: functional
[15] = system: Malme-3M; assay: Growth inhibition of human MALME-3M cells; type: functional
[16] = system: MDA-MB-468; assay: Growth inhibition of human MDA-MB-468 cells; type: functional
[17] = system: COLO 205; assay: Growth inhibition of human COLO205 cells; type: functional
[18] = target: cGMP-specific 3',5'-cyclic phosphodiesterase (Homo sapiens) (UniProt O76074); assay: Inhibition of human PDE5 at 10 uM
[19] = system: LOX IMVI; assay: Growth inhibition of human LOXIMVI cells; type: functional
[20] = system: HCT-116; assay: Growth inhibition of human HCT116 cells; type: functional
[21] = system: SN12C; assay: Growth inhibition of human SN12C cells; type: functional
[22] = target: CYP1A2 (Homo sapiens, UniProt P05177); assay: Inhibition of human CYP1A2 at 10 uM; type: ADME
Chain of CYP1A2 (P05177 whole entry): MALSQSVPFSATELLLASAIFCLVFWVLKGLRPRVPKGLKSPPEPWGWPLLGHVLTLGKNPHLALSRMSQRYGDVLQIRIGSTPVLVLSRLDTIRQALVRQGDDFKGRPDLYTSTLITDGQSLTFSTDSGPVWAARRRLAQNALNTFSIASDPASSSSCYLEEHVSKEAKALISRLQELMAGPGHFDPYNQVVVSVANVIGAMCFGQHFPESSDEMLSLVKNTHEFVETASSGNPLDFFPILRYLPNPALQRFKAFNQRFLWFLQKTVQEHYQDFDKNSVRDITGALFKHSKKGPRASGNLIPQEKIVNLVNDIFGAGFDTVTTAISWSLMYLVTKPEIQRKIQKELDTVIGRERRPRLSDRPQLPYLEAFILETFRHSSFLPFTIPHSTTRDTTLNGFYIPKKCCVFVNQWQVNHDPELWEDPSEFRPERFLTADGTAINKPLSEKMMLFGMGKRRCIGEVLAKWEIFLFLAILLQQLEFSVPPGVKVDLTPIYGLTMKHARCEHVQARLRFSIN

[23] = system: NCI-H23; assay: Growth inhibition of human NCI-H23 cells; type: functional
[24] = system: NCI-H322M; assay: Growth inhibition of human NCI-H322M cells; type: functional
[25] = system: T47D; assay: Growth inhibition of human T47D cells; type: functional
[26] = system: OVCAR-5; assay: Growth inhibition of human OVCAR5 cells; type: functional
[27] = read-out: pLC50 (the source's name) (converted)

Chain of UGT1A1 (P22309 whole entry): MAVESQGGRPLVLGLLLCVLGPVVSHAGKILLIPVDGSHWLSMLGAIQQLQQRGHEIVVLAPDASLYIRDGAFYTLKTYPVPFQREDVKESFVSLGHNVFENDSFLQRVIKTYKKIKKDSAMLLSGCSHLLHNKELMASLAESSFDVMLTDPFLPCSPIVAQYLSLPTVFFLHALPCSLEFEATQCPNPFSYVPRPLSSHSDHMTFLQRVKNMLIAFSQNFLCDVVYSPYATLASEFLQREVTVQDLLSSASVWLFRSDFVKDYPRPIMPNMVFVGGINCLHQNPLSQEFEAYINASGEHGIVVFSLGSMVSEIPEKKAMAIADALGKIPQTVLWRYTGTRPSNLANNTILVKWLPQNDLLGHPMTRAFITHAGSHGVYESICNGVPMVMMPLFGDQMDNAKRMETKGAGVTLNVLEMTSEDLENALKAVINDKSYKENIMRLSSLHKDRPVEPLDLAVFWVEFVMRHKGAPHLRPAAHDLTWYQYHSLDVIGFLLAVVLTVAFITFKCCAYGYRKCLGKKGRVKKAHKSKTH

COc1ccc2[nH]c(-c3cccc(F)c3)cc(=O)c2c1O
inhibition at 10 µM [1]: 86% | GI50 [2]: 33.1 nM | CC50 [2, 27]: > 100 µM | TGI ([2]; read-out: pTGI (converted)): 16.2 µM | GI50 [3]: 17.4 nM | CC50 [3, 27]: 56.2 µM | TGI ([3]; read-out: pTGI (converted)): 45.7 nM | GI50 [4]: 97.7 nM | CC50 [4, 27]: > 100 µM | TGI ([4]; read-out: pTGI (converted)): 33.9 µM | GI50 [5]: 46.8 nM | CC50 [5, 27]: > 100 µM | TGI ([5]; read-out: pTGI (converted)): 22.9 µM | GI50 [6]: 61.7 nM | CC50 [6, 27]: > 100 µM | TGI ([6]; read-out: pTGI (converted)): 22.9 µM | GI50 [7]: < 10 nM | CC50 [7, 27]: > 100 µM | TGI ([7]; read-out: pTGI (converted)): 45.7 nM | GI50 [8]: 33.1 nM | CC50 [8, 27]: 32.4 µM | TGI ([8]; read-out: pTGI (converted)): 1050 nM | inhibition [9]: 55% | GI50 [10]: 19.1 nM | CC50 [10, 27]: 30.2 µM | TGI ([10]; read-out: pTGI (converted)): 40.7 nM | GI50 [11]: 14.4 nM | CC50 [11, 27]: 97.7 nM | TGI ([11]; read-out: pTGI (converted)): 38 nM | GI50 [12]: 41.7 nM | CC50 [12, 27]: 93.3 µM | TGI ([12]; read-out: pTGI (converted)): 14.8 µM | GI50 [13]: 51.3 nM | CC50 [13, 27]: 39.8 µM | TGI ([13]; read-out: pTGI (converted)): 10.2 µM | GI50 [14]: 56.2 nM | CC50 [14, 27]: 81.3 µM | TGI ([14]; read-out: pTGI (converted)): 16.2 µM | CC50 [15, 27]: > 100 µM | TGI ([15]; read-out: pTGI (converted)): 52.5 µM | GI50 [16]: 39.8 nM | CC50 [16, 27]: 851 nM | TGI ([16]; read-out: pTGI (converted)): 219 nM | GI50 [17]: 25.1 nM | CC50 [17, 27]: 832 nM | TGI ([17]; read-out: pTGI (converted)): 66.1 nM | inhibition [18]: 57% | GI50 [19]: 91.2 nM | CC50 [19, 27]: > 100 µM | TGI ([19]; read-out: pTGI (converted)): 57.5 µM | GI50 [20]: 33.1 nM | CC50 [20, 27]: 29.5 µM | TGI ([20]; read-out: pTGI (converted)): 1780 nM | GI50 [21]: 61.7 nM | CC50 [21, 27]: > 100 µM | TGI ([21]; read-out: pTGI (converted)): 38 µM | inhibition at 10 µM [22]: 85% | GI50 [23]: 34.7 nM | CC50 [23, 27]: > 100 µM | TGI ([23]; read-out: pTGI (converted)): 13.8 µM | GI50 [24]: 851 nM | CC50 [24, 27]: > 100 µM | TGI ([24]; read-out: pTGI): > 100 µM | GI50 [25]: 28.2 nM | CC50 [25, 27]: 87.1 µM | CC50 [26, 27]: 46.8 µM | TGI ([26]; read-out: pTGI (converted)): 15.8 µM
